Values quoted from earlier work, collected in US20100104643A1, “PHARMACEUTICAL COMPOSITIONS” (ZYSIS LIMITED, priority 2007, published 2010).

How the values were obtained:
[1] = for dose-concentration relationship: plasma concentrations
[2] = trimipramine antidepressant treatment

Row | upper limit of the therapeutic trough plasma concentrations [2] [mg/L] | bioavailability difference between poor and ultra-fast metabolizers ([1]; CYP2D6 genotypes) [fold] | mean systemic clearances, ultrarapid metabolizers of CYP2D6 substrates versus poor metabolizers ([1]; higher in ultrarapid than in poor metabolizers) [fold] | total oral clearance, low extreme ([1]; poor metabolizer group) [L/h] | difference in total oral clearance ([1]; poor versus ultrarapid CYP2D6 metabolizers) | total oral clearance, high extreme ([1]; ultrarapid metabolizer group) [L/h] | Structure (SMILES) | dose-concentration relationship [1]
1 | 0.38 | – | – | – | – | – | CNCC(C)CN1c2ccccc2CCc2ccccc21 (stereo not drawn) [desmethyltrimipramine] | deviation from linearity within the therapeutic dose range
2 | 0.24 | 6 | 2.5 | 3.5 | about 15 fold | 712.6 | CC(CN(C)C)CN1c2ccccc2CCc2ccccc21 (stereo not drawn) [trimipramine, 10,11-Dihydro-5-(3-dimethylamino-2-methylpropyl)-5H-dibenz(b,f) azepine] | linear dose-concentration relationship for doses up to 150 mg
